Laboratory results published in BigSolDB 2.1.

## CCOC(=O)c1ccc(O)cc1
In acetonitrile, 278.15 K
  solubility (mole fraction): 0.0703
In acetonitrile, 283.15 K
  solubility (mole fraction): 0.0822
In acetonitrile, 288.15 K
  solubility (mole fraction): 0.0995
In acetonitrile, 293.15 K
  solubility (mole fraction): 0.121
In acetonitrile, 298.15 K
  solubility (mole fraction): 0.148
In acetonitrile, 303.15 K
  solubility (mole fraction): 0.178
In acetonitrile, 308.15 K
  solubility (mole fraction): 0.214
In acetonitrile, 313.15 K
  solubility (mole fraction): 0.252
In acetonitrile, 318.15 K
  solubility (mole fraction): 0.293
In water, 278.15 K
  solubility (mole fraction): 2.62e-05
In water, 283.15 K
  solubility (mole fraction): 3.64e-05
In water, 288.15 K
  solubility (mole fraction): 5.25e-05
In water, 293.15 K
  solubility (mole fraction): 7.52e-05
In water, 298.15 K
  solubility (mole fraction): 9.7e-05
In water, 303.15 K
  solubility (mole fraction): 0.000119
In water, 308.15 K
  solubility (mole fraction): 0.000145
In water, 313.15 K
  solubility (mole fraction): 0.000169
In water, 318.15 K
  solubility (mole fraction): 0.000192
